How the values were obtained:
[1] = tested on: pentylenetetrazol-induced tonic convulsions in mice; experiment: Pentazol tonic convulsions in mice, i.p. (Procedure 401); type: in vivo; conditions: for ED50: Mus musculus, ip, i.p. 30 min before 150 mg/kg pentylenetetrazol s.c., seizures inhibited in 50% of the animals, read-out: ED50, activity against pentazol induced convulsions, tonic
Experimental: III. Pentazol tonic conv. mice i.p. (Procedure 401)
(§1) Pentylenetetrazol induces clonic and tonic convulsions in mice at doses of 60-120 mg/kg s.c. The mechanism is unknown but seem to be due to some effects through the GABA receptor/benzodiazepine receptor/chloride ionophore complex. Antagonism of convulsions induced by maximal doses of pentylenetetrazol is considered predictive for drugs effective against petit mal epilepsia and anxiety.
150 mg/kg pentylenetetrazol (Pentazol, Sigma) dissolved in 0.9% NaCl is given by the subcutaneous route in volumes of 15 ml/kg to male or female NMRI mice weighing 20-25 g 30 min after an intraperitoneal injection of a test compound.
The ED50 value is calculated as the dose in μg/kg where seizures are inhibited in 50% of the animals using a computer program based on the method of Litchfield and Wilcoxon (1949).

[2] = tested on: benzodiazepine receptors; experiment: In vivo inhibition of 3H-flunitrazepam binding to mouse forebrain membranes (Procedure 130); set-up: species or system mice; conditions: for ED50 binding in vivo: i.p. 15 min before 3H-FNM i.v., dose which inhibits 50% of specific 3H-FNM binding, mouse forebrain
Experimental: I. In vivo inhibition of ^3 H-flunitrazepam binding to mouse forebrain membranes by test substances administered intraperitoneally. (Procedure 130)
Twenty minutes after a dose of ^3 H-flunitrazepam (^3 H-FNM) (200 μCi/kg, i.v.) the amount of specific ^3 H-FNM binding to brain benzodiazepine receptors has reached its maximal value.
Suspensions of test substances (2 mg/ml) are prepared in 5% Duphasol-X* by sonification for 10 min using a Branson B15 microtip ultrasonifier (setting 7). Groups of three mice (female, NMR, 18-22 gram) are injected with the test substance at 100 mg/kg intraperitoneally. Fifteen minutes after test substance administration the mice are challenged with 4 μCi intraveneously of ^3 H-FNM (70-90 Ci/mole) in 200 μl physiological saline. Twenty minutes after ^3 H-FNM administration mice are sacrificed by decapitation, the forebrains rapidly excised (within 30 sec) and homogenized in 12 ml of icecold 25 mM KH2 PO4, pH 7.1, using an Ultra-Turrax homogenizer fitted with an N 10 shaft. Two aliquots of 1 ml are immediately filtered through Whatman GF/C glassfibre filters and washed with 2×5 ml of the above mentioned buffer. The amounts of radioactivity on the filters are determined by conventional scintillation counting. One group of untreated mice serves as controls. One to three mice are injected with 25 mg/kg clonazepam i.p. 30 minutes before ^3 H-FNM to determine the amount of non-specific ^3 H-FNM binding, which should be between 8-15% of total binding.
*(™Duphar; castor-oil-ethylene oxide derivative for emulsifying and solubilizing oil and other water-insoluble substances)
When doses of 100 mg/kg inhibit more than 50% of specific ^3 H-flunitrazepam binding; test substances are administered in doses, which are factors of 3.16 times lower than 100 mg/kg.
The ED50 for a test substance is defined as that dose which inhibits 50% of specific ^3 H-FNM binding. Specific binding is the amount of binding in controls minus the amount binding in clonazepam-treated mice.
The ED50 value is determined from dose response curves. If only one dose of test substance is administered the ED50 value is calculated as follows, provided that the inhibition of specific binding is within the range of 25-75%: [formula] where Co is specific binding in controls and Cx is specific binding in mice treated with test substance.

[3] = tested on: pentylenetetrazol-induced clonic convulsions in mice; experiment: Pentazol clonic convulsions in mice, i.p. (Procedure 400); type: in vivo; conditions: for ED50: Mus musculus, ip, i.p. 30 min before 150 mg/kg pentylenetetrazol s.c., seizures inhibited in 50% of the animals, read-out: ED50, activity against pentazol induced convulsions, clonic
Experimental: II. Pentazol clonic conv. mice (i.p.) (Procedure 400)
as §1, with “seems” for “seem”
150 mg/kg pentylenetetrazol dissolved in 0.9% NaCl is given by the subcutaneous route in volumes of 15 ml/kg to male or female NMRI mice weighing 20-25 g 30 min after an intraperitoneal injection of a test compound.
The ED50 value is calculated as the dose in μg/kg at which seizures are inhibited in 50% of the animals using a computer program based on the method of Litchfield and Wilcoxon (1949).

[4] = compared to analogue (D), Roche EP 150,040 ex. 44

| SMILES | ED50 [1] [mg/kg] | ED50 binding in vivo [2] | ED50 [3] [mg/kg] | times as active in protecting against pentetrazol induced tonic convulsions [1, 4] [times] | times as active in protecting against pentetrazol induced tonic convulsions ([1]; compared to compound E) [times] | times as active in binding affinity for the benzodiazepine receptor [2, 4] | times more as active in binding affinity for the benzodiazepine receptor ([2]; compared to compound E) [times] | times as active in protecting against pentetrazol induced clonic convulsions [3, 4] | times as active in protecting against pentetrazol induced clonic convulsions ([3]; compared to compound E) [times] |
| --- | --- | --- | --- | --- | --- | --- | --- | --- | --- |
| CC(C)c1noc(-c2ncn3c2CN(C)C(=O)c2ccccc2-3)n1 [C] | 1.7 | 600 µg/kg | 3 | – | – | – | – | – | – |
| CCc1nc(-c2ncn3c2CN(C)C(=O)c2ccccc2-3)no1 [B] | 1.3 | 1,800 μg/kg | 27 | – | – | – | – | – | – |
| CN1Cc2c(-c3noc(C4CC4)n3)ncn2-c2ccccc2C1=O [A, 3-(5-cyclopropyl-1,2,4-oxadiazol-3-yl)-5,6-dihydro-5-methyl-6-oxo-4H-imidazo[1,5-a][1,4]benzodiazepine] | 0.03 | 80 µg/kg | 0.07 | 10 | 33 | more than 4 times | 12 | approximately 40 times | 185 |
| O=C1c2c(Cl)cccc2-n2cnc(-c3noc(C4CC4)n3)c2C2CCCN12 (stereo not drawn) [E] | 1 | 960 µg/kg | 13 | – | – | – | – | – | – |
| CN1Cc2c(-c3nc(C4CC4)no3)ncn2-c2ccccc2C1=O [D] | 0.3 | 340 µg/kg | 2.7 | – | – | – | – | – | – |

Reference: patent US4622321A, “Oxadiazolylimidazobenzodiazepine, compositions, and method” (AS Ferrosan, priority 1985, dated 1986)
